In assay [1] the target is Ustilago maydis acetyl CoA carboxylase (ACCase) (Ustilago maydis, UniProt A0A0D1DYD5). The assay can be described thus: ACCase enzymatic assay (PK/LDH-coupled, NADH OD340). Type of assay: biochemical. On the procedure:
Ustilago maydis acetyl CoA carboxylase (ACCase) was cloned, expressed, and purified as described (Weatherly et al, Biochem. J., 2004) and the test compounds were tested in a 96-well plate format. Primary in vitro screening consisted of obtaining dose response data at 100, 33, 10, and 1 μM inhibitor. Actives in the primary screen were re-tested to establish IC50 values.
Direct detection of the conversion of acetyl CoA to malonyl CoA by ACCase was not feasible, but during this process ATP is converted to ADP which allowed for detection through a standard reaction coupling with ADP recycling to the oxidation of NADH. Thus, ACCase activity was measured via kinetic OD340 measurements of the conversion of NADH to NAD in a coupled reaction involving the conversion of phosphoenolpyruvate (PEP) to lactate.
The complete 200 ul reaction mixture contained 52.5 mM HEPES (pH8), 2.625 mM MgCl2, 1 mM ATP, 0.525 mM DTT, 11 mM NaHCO3, 1% DMSO with or without inhibitor, lx pyruvate kinase/lactate dehydrogenase (PK/LDH), 0.3 mM NADH, 0.5 mM PEP, and 5 μg ACCase. The reactions were incubated at 30° C. for 10 minutes and then initiated by the addition of 0.33 mM acetyl CoA. The initiated reactions were read immediately via plate reader at OD340 and kinetic readings were acquired every 20 s for 15 minutes while keeping the temperature at 30° C.
A slope of the kinetic curve was determined by using the 2 to 7 minute data which was then calculated as percent inhibition relative to the no inhibitor control.
The primary screens were conducted in duplicate and the IC50's conducted in triplicate. Averages were reported along with standard deviation calculation to generate error bars.
Each plate contained its own controls and consisted of a DMSO only control, 5-fold titration series of soraphen from 2 μM to 3.2 nM, and an ADP coupled reaction control.
In order to effectively screen out non-specific modulators of pyruvate kinase and lactate dehydrogenase (the coupled portion of the reaction), a PK/LDH inhibition test was developed. The complete 200 μl reaction mixture contained 52.5 mM HEPES (pH8), 2.625 mM MgCl2, 0.525 mM DTT, 11 mM NaHCO3, 1% DMSO with or without inhibitor, 1× pyruvate kinase/lactate dehydrogenase (PK/LDH), 0.3 mM NADH, and 0.5 mM PEP. The reactions were incubated at 30° C. for 10 minutes and then initiated by the addition of 66 μM ADP. The initiated reactions were read immediately via plate reader at OD340 and kinetic readings were acquired every 20 s for 15 minutes while remaining at 30° C.
A slope of the kinetic curve was determined by using the 2 to 7 minute data which was then calculated as percent inhibition relative to the no inhibitor control. Those compounds which had no significant PK/LDH inhibition at or above the IC50 in the ACCase assay, were considered to be valid modulators of only ACCase.

In a further assay the test system is Botrytis cinerea. Description: Fungal growth inhibition assay, B. cinerea. The format is cell-based. From the text:
Spores were isolated from previously sub-cultured plates of Botrytis cinerea, Phytophthora capsici, Fusarium moniliforme, Fusarium viguliforme, Collectotrichum graminicola, and Diplodia maydis. All spores were filtered and collected in a sterile glass bowl to isolate the spores from the mycelia. The isolation and sub-culture plate condition for each pathogen is described below.
Spore isolation for B. cinerea: A 2-3 week old V8 (17%)+CaCO3 (3 g/L)+20 g agar plate was removed from room temperature and the mycelia were treated with 5-10 ml of filter sterilized Triton X 100 (0.05%). The mycelia were scraped to re-suspend the spores. The spores were then collected in a sterile filter bowl containing a fluted piece of filter paper and poured into a conical tube.
After spore isolation, pathogen spores were counted on a hemocytometer to calculate the spores/ml. In 17% V8 liquid media containing 3 g/L CaCO3, isolated spores were diluted to individual concentrations based on the growth curves at 48 hours of each pathogen. […]
In a 96-well plate the spore solution, chemistries, and controls were combined to make the final solution concentrations mentioned above. Upon addition of the chemistry, an OD600 reading was done to assess chemical precipitation. […] Plate readings were repeated at 24 and 48 hrs. […]

Setting [2] is: Table 1A, read-out: ACCase Inhibitory Activity IC50.
Where [3] appears, read: Table 1B, racemates and single enantiomers, read-out: ACCase Inhibitory Activity of Racemic Mixtures and Single Enantiomers IC50.

Where two headings read alike, the source gives them in different places.

Sequence of Ustilago maydis acetyl CoA carboxylase (ACCase) (A0A0D1DYD5 1-2185): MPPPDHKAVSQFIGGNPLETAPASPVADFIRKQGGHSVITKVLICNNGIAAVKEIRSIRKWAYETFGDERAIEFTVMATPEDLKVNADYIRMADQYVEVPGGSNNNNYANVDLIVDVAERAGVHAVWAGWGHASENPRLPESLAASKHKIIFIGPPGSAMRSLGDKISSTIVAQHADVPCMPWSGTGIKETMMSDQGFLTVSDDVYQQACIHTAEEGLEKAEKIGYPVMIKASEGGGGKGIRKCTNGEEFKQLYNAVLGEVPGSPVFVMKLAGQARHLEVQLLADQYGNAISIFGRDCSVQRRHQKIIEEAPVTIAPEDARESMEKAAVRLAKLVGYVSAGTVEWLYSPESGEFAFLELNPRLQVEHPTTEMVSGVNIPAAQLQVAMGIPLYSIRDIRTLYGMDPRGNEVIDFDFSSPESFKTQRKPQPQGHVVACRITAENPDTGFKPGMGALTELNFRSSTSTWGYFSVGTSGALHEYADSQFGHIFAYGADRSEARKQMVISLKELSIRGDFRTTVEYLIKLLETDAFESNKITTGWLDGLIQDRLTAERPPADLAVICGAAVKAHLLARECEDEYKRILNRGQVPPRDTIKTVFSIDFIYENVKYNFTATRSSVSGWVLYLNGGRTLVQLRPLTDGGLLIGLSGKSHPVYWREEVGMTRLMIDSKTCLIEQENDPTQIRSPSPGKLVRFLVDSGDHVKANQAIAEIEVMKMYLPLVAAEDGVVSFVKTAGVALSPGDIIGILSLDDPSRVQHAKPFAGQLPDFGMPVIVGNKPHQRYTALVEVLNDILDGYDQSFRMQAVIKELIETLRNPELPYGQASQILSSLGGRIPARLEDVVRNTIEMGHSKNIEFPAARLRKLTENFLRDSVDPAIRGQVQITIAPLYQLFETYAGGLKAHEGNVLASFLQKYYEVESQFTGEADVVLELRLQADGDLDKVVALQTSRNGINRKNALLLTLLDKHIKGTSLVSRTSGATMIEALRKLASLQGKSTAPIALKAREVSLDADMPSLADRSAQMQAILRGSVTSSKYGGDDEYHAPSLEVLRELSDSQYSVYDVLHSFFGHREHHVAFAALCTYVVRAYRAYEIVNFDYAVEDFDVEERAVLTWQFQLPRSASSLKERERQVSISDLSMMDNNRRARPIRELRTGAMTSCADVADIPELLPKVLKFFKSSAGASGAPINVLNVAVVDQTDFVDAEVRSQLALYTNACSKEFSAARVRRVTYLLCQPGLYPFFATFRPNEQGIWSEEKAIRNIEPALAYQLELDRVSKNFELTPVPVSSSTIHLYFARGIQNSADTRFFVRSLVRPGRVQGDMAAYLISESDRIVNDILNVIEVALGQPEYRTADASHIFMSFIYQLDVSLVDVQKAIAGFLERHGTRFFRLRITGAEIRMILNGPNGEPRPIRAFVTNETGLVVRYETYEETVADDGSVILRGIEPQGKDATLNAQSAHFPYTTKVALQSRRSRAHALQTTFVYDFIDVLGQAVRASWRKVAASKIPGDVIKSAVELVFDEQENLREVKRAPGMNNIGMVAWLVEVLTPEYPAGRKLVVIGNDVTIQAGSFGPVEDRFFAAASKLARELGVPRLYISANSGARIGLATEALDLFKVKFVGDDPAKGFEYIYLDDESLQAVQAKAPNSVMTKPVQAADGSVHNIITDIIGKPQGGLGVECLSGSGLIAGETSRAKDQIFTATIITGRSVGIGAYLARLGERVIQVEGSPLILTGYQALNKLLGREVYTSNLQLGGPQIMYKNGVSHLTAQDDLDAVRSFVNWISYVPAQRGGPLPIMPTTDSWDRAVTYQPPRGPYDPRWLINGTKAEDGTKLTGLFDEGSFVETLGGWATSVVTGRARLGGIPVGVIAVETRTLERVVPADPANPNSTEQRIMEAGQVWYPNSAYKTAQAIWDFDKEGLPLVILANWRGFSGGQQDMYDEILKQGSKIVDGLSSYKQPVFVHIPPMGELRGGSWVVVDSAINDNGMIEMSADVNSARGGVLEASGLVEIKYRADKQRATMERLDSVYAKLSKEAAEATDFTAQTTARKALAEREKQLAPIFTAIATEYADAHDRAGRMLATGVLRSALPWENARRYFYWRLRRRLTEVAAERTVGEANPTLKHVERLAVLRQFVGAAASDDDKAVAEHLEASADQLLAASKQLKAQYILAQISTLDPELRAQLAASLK

“2-((3-cyano-4-(4-methoxyphenyl)-6-(1-oxidothiophen-2-yl)pyridin-2-yl)oxy)-2-phenylacetic acid [Formula Ia-xxviii]”: the IC50 in assay [1] (setting [2]) stood at 196 nM. Besides, the “B. cinerea % growth inhibition at 48 hours” value with Botrytis cinerea (2 ppm) was determined as 14%; with Botrytis cinerea (10 ppm), 27%. As to `N#Cc1c(C(F)(F)F)cc(-c2cccs2)nc1S[C@H](C(=O)O)c1ccccc1` (single isomer, unassigned) [Formula Ia-ii-e2, 2-((3-cyano-6-(thiophen-2-yl)-4-(trifluoromethyl)pyridin-2-yl)thio)-2-phenylacetic acid], in assay [1] (setting [3]), the IC50 was determined as 1210 nM. For the molecule `N#Cc1c(-c2cccs2)cc(-c2cccs2)nc1SC(C(=O)O)c1ccccc1` (racemic) [Formula Ia-iii, 2-((3-cyano-4,6-di(thiophen-2-yl)pyridin-2-yl)thio)-2-phenylacetic acid], the IC50 was 616 nM in assay [1] (setting [2]) and 439 nM in assay [1] (setting [3]). Regarding `COc1ccc(-c2cc(-c3cccs3)nc(SC(C(=O)O)c3ccccc3)c2C#N)cc1` (racemic) [Formula Ia-xiv, 2-((3-cyano-4-(4-methoxyphenyl)-6-(thiophen-2-yl)pyridin-2-yl)thio)-2-phenylacetic acid], in assay [1] (setting [2]), the half-inhibitory concentration (IC50) was determined as 60 nM.

As a reminder, the IC50 is the concentration needed to halve the response being measured.
